The values below come from paper PMC6965684, “Characterization of binding, functional activity, and contractile responses of the selective 5‐HT1F receptor agonist lasmiditan” (British Journal of Pharmacology, 2019).

SMILES strings stand for the structures. Structures can show the parent of a compound that is named as a salt. Where two headings read alike, the source gives them in different places. Some results are limits rather than exact numbers.

The target in assay [1] is T1, 5-ht1E receptor (Homo sapiens, UniProt P28566).
T1 construct: gene HTR1E; full-length human recombinant receptor in CHO-K1 cells (Ogeda); crude membranes
T1 sequence (P28566 whole entry): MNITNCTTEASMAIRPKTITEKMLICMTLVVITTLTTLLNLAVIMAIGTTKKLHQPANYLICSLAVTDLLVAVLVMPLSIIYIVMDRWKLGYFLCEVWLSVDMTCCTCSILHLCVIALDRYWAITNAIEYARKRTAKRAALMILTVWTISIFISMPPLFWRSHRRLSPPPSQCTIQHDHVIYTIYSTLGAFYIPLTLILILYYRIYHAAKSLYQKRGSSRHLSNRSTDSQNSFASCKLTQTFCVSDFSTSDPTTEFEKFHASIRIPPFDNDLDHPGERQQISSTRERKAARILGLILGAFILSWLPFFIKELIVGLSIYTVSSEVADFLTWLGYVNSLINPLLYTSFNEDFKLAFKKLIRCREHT
The experiment in a line: biochemical. On the set-up: radioligand competition binding on cell membranes, filtration and TopCount scintillation counting. In kind it is CHO-K1 membranes. Particulars: radioligand displacement; read-out: 5‐ht1E / pIC50 (converted). As for the experimental part:
(§1) Competition binding was performed in duplicate in the wells of a 96‐well plate containing binding buffer (optimized for each receptor), cell membrane extracts (approximately 20,000 cells distributed in the 96‐well plate), radiotracer, and test agonist. Non‐specific binding was determined by co‐incubation with 200‐fold excess of competitor. Cells were incubated and exposed to varying concentrations (1 pM to 10 μM) of a range of displacer agonists (see below). The samples were incubated in a final volume of 0.1 ml and then filtered over Unifilter plates (Perkin Elmer, Massachusetts, USA) pretreated for 2 hr to limit tracer non‐specific binding. Filters were washed five times with 0.5 ml of ice‐cold washing buffer (tris 50 mM pH 7.4) and 50 μl of Microscint 20 (Perkin Elmer) were added to each filter. The plates were incubated 15 min at room temperature on an orbital shaker and then counted with a TopCount™ (Perkin Elmer) for 1 min per well. […] Additionally, the reference values obtained were compared to historical values obtained from the same receptor and used to validate the experimental session. […] For the new assays developed in this study (i.e., 5‐ht1E receptor), the two independent pIC50 determined must be concordant with a 1 log unit interval for the assays to be validated.
A general note: Displacement assays read how much labelled ligand stays bound in the presence of the test substance.

Assay [2] concerns the target T2, 5-HT1F receptor (Homo sapiens, UniProt P30939).
T2 construct: gene HTR1F; full-length human recombinant receptor in CHO-K1 cells (Ogeda)
T2 sequence (P30939 1-366): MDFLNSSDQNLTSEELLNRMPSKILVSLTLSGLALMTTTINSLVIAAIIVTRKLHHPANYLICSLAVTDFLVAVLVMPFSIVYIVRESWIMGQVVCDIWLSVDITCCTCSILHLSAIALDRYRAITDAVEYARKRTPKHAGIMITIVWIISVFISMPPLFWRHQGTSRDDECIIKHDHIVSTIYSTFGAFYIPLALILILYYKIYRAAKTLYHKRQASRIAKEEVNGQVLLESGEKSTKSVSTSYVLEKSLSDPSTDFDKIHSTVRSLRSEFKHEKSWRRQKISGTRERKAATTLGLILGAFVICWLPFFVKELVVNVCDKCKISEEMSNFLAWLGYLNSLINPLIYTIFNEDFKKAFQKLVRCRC
The experiment in a line: biochemical. In kind it is CHO-K1 membranes. On the set-up: radioligand competition binding on cell membranes, filtration and TopCount scintillation counting. Particulars: radioligand displacement; for IC50: read-out: 5‐HT1F / pIC50 (converted); for Ki: read-out: 5‐HT1F / pKi (converted). As for the experimental part: as §1, with “validated. […]” for “validated.”

Assay [3] has as its target T2, 5-HT1F receptor. The experiment in a line: biochemical. Format: CHO-K1 membranes. On the set-up: GTPγS agonist functional assay. The note with it: GTPγS. The text has this:
(§2) Additionally, the reference values obtained were compared to historical values obtained from the same receptor and used to validate the experimental session. […] For the new assays developed in this study (i.e., 5‐ht1E receptor), the two independent pIC50 determined must be concordant with a 1 log unit interval for the assays to be validated.

Assay [4] addresses T1, 5-ht1E receptor. The experiment in a line: biochemical. In kind it is CHO-K1 membranes. Also noted: GTPγS agonist functional assay. Particulars: GTPγS.
Text: as §2

The target of assay [5] is T1, 5-ht1E receptor. The experiment in a line: radioligand competition, CHO-K1 membranes. The note with it: read-out: 5-ht1E / pKi (converted). Format: binding. The text has this: radioligand competition, CHO-K1 membranes on 5-ht1E receptor
Assay [6] deals with T3, 5-HT1B receptor (Homo sapiens, UniProt P28222).
T3 construct: gene HTR1B; full-length human recombinant receptor in CHO-K1 cells (Ogeda); crude membranes
T3 sequence (P28222 whole entry): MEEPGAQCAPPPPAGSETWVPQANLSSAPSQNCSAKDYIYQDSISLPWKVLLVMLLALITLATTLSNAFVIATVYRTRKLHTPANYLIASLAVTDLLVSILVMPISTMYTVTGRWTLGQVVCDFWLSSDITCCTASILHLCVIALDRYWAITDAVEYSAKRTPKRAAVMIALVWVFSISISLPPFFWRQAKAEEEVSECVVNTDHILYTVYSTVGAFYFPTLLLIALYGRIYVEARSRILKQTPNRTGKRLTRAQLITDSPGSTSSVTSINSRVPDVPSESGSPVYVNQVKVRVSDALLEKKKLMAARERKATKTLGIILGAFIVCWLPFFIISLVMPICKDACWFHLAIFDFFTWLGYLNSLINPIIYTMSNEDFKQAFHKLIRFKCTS
Kind of assay: biochemical. In kind it is CHO-K1 membranes. Also noted: radioligand competition binding on cell membranes, filtration and TopCount scintillation counting. The note with it: radioligand displacement; read-out: 5‐HT1B / pIC50 (converted). As for the experimental part:
as §1

Assay [7] deals with T4, 5-HT1D receptor (Homo sapiens, UniProt P28221).
T4 construct: gene HTR1D; full-length human recombinant receptor in CHO-K1 cells (Ogeda); crude membranes
T4 sequence (P28221 whole entry): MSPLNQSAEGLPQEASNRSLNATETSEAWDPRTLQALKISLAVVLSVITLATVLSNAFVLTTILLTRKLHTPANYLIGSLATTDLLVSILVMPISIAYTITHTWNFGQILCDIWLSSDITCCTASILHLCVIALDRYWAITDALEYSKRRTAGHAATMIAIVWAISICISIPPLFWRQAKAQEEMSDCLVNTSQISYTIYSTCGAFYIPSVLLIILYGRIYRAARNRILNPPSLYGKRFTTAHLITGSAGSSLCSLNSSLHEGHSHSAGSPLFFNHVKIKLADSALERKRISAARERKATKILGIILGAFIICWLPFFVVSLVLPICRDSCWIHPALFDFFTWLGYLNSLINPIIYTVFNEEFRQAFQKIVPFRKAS
Kind of assay: biochemical. In kind it is CHO-K1 membranes. Particulars: radioligand displacement; read-out: 5‐HT1D / pIC50 (converted). On the set-up: radioligand competition binding on cell membranes, filtration and TopCount scintillation counting. As for the experimental part:
as §1

For the next assay, the target named is T5, 5-HT2B receptor (Homo sapiens, UniProt P41595).
T5 construct: gene HTR2B; full-length human recombinant receptor in CHO-K1 cells (Ogeda); crude membranes
T5 sequence (P41595 whole entry): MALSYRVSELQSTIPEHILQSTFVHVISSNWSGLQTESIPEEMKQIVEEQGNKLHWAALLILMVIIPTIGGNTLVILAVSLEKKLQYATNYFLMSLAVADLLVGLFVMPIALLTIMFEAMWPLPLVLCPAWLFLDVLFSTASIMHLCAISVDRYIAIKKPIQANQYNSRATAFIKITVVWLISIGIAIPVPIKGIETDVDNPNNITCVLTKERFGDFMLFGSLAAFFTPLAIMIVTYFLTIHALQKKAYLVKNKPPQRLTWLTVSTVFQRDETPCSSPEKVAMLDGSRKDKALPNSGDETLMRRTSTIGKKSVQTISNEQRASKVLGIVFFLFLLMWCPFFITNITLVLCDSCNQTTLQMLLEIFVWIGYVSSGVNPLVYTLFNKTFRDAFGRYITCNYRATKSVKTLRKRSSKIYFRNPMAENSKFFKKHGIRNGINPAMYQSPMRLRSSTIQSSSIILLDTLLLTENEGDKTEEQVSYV
The experiment in a line: biochemical. In kind it is CHO-K1 membranes. Also noted: radioligand competition binding on cell membranes, filtration and TopCount scintillation counting. The note with it: radioligand displacement; read-out: 5‐HT2B / pIC50 (converted). As for the experimental part: as §1

Assay [8] deals with T3, 5-HT1B receptor. The experiment in a line: biochemical. Format: CHO-K1 membranes. On the set-up: GTPγS agonist functional assay.
Text: as §2

Assay [9] addresses T4, 5-HT1D receptor. The experiment in a line: biochemical. In kind it is CHO-K1 membranes. On the set-up: GTPγS agonist functional assay.
Text: as §2

Where [10] appears, read: GTPγS, read-out: 5‐HT1B / GTPγS (converted).
[11] abbreviates: GTPγS, read-out: 5‐HT1D / GTPγS (converted).

Turning to `CNC1CCc2[nH]c3ccc(C(N)=O)cc3c2C1` (racemic) [Frovatriptan racemate], the IC50 on 5-ht1E receptor [1] is greater than 10 µM; at 5-HT1F receptor [2], 0.316 µM. The Ki at 5-HT1F receptor [2] was 0.12 µM. For the same compound, the EC50 at 5-HT1F receptor [3] was 0.447 µM; on 5-ht1E receptor [4] it was greater than 10 µM.

Turning to `CNS(=O)(=O)Cc1ccc2[nH]cc(CCCN3CCN(c4ncncc4OC)CC3)c2c1` [Avitriptan fumarate], the Ki at 5-ht1E receptor [5] is 3.55 µM. Also, the IC50 on 5-HT1B receptor [6] is 0.00479 µM; on 5-HT1D receptor [7], 0.0038 µM; at 5-HT2B receptor, 1.86 µM; on 5-ht1E receptor [1] it was 7.08 µM; on 5-HT1F receptor [2], 0.204 µM. For the same compound, the EC50 at 5-HT1B receptor [8] (setting [10]) was 0.00209 µM; on 5-HT1D receptor [9] (setting [11]) it was 0.000537 µM; on 5-HT1F receptor [3], 0.891 µM; at 5-ht1E receptor [4], greater than 10 µM.

Regarding `N#Cc1ccc(N2CCN(C(=O)COc3ccc4[nH]cc(CCN)c4c3)CC2)cc1` [Donitriptan hydrochloride], at 5-ht1E receptor [5], the Ki was 1.7 µM. Also, the IC50 at 5-HT1B receptor [6] is 0.000513 µM; at 5-HT1D receptor [7], 0.000661 µM; at 5-HT2B receptor, 1.32 µM; on 5-ht1E receptor [1] it was 3.39 µM. Also, the figures for the EC50 at 5-HT1B receptor [8], on 5-HT1D receptor [9] and at 5-ht1E receptor [4] were 0.000302 µM, 0.000309 µM and greater than 10 µM, respectively.

With `CN1CCC[C@@H]1Cc1c[nH]c2ccc(CCS(=O)(=O)c3ccccc3)cc12` [Eletriptan hydrobromide], the Ki at 5-ht1E receptor [5] is 0.0617 µM. In addition, the IC50 was 0.00158 µM on 5-HT1B receptor [6]; 0.00049 µM at 5-HT1D receptor [7]; 0.724 µM at 5-HT2B receptor; 0.123 µM on 5-ht1E receptor [1]; 0.0447 µM on 5-HT1F receptor [2]. In addition, the EC50 on 5-HT1B receptor [8] (setting [10]) is 0.00813 µM; on 5-HT1D receptor [9] (setting [11]), 0.000912 µM; on 5-HT1F receptor [3], 0.132 µM; on 5-ht1E receptor [4], 0.126 µM.

As for `CN(C)[C@@H]1CCc2[nH]c3ccc(NC(=O)c4ccc(F)cc4)cc3c2C1` [LY344864 hydrochloride], the IC50 at 5-HT2B receptor was 4.9 µM; at 5-HT1F receptor [2], 0.00417 µM. Also, the Ki at 5-HT1F receptor [2] is 0.00158 µM. The EC50 was 0.117 µM at 5-HT1D receptor [9] (setting [11]) and 0.0141 µM at 5-HT1F receptor [3].

On to `CNS(=O)(=O)CCc1ccc2[nH]cc(C3CCN(C)CC3)c2c1` [Naratriptan hydrochloride], for which the Ki on 5-ht1E receptor [5] was 0.00741 µM. Moreover, the IC50 on 5-HT1D receptor [7] was 0.0024 µM; on 5-HT2B receptor, greater than 10 µM; on 5-HT1F receptor [2], 0.00468 µM. Also, the EC50 at 5-HT1B receptor [8] (setting [10]) was 0.00138 µM; at 5-HT1F receptor [3], 0.00891 µM; on 5-ht1E receptor [4], 0.00676 µM.
